Experimental data published in US7074789B2, “Kinase inhibitors” (Amgen Inc., priority 1999, dated 2006).
Read-outs that look alike come from different tables or passages of the source.

Columns and labels:
Type in all cases: biochemical
[1] = biological target: T1, Lck (Homo sapiens, UniProt P06239); assay: Kinase inhibition assay (33P transfer), Lck; details: read-out: Lck-1
T1 construct: Kinases are expressed as either kinase domains or full length constructs; made in house
How it was run: (§1)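 Radiometric readout: 33P incorporated into surface-bound poly(Glu,Tyr) 4:1 or poly(Arg,Ser) 3:1 is counted by liquid scintillation after a 0.5% phosphoric acid wash. Enzymes were GST or polyHis fusions (kinase domain or full length) from E. coli or High Five insect cells.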

[2] = biological target: T2, Zap-70 (Homo sapiens, UniProt P43403); assay: Kinase inhibition assay (33P transfer), Zap-70; details: read-out: Zap-1
T2 construct: Kinases are expressed as either kinase domains or full length constructs; made in house
T2 sequence (P43403 1-619): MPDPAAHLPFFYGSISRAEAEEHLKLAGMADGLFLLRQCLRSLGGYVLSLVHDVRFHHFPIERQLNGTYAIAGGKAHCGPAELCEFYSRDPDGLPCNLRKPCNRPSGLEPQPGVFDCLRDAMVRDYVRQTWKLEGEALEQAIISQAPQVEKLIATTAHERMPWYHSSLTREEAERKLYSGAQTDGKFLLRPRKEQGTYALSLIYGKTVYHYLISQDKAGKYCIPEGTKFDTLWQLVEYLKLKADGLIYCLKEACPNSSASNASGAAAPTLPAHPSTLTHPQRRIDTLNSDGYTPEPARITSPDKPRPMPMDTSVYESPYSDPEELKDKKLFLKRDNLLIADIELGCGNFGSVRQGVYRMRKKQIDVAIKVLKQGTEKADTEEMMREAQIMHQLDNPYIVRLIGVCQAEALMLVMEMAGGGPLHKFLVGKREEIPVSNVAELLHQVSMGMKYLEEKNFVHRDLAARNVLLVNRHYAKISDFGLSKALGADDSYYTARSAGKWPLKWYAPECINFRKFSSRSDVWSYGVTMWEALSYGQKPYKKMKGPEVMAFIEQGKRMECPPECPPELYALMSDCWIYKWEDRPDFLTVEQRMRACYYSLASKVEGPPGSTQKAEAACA
How it was run: as §1

[3] = biological target: T3, Itk (Homo sapiens, UniProt Q08881); assay: Kinase inhibition assay (33P transfer), Itk; details: read-out: Itk-1
T3 construct: Kinases are expressed as either kinase domains or full length constructs; made in house
T3 sequence (Q08881 1-620): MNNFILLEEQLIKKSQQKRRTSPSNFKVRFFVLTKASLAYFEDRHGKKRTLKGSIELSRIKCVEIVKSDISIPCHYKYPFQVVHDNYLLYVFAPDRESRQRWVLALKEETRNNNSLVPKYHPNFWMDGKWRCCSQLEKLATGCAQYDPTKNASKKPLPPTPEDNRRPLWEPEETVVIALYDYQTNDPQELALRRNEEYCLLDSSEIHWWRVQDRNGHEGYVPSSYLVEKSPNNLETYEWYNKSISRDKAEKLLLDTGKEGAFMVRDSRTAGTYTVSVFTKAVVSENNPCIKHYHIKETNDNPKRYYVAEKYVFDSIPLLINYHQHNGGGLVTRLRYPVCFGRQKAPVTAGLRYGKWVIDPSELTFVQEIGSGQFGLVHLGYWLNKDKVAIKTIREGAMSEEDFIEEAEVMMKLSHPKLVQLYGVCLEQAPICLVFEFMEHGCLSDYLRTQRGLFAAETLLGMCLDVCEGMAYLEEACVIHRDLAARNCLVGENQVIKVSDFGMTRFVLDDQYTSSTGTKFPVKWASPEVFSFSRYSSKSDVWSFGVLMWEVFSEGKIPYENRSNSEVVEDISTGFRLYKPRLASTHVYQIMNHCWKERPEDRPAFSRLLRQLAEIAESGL
How it was run: (§2)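 Kinase domains or full-length enzymes, GST- or polyHis-tagged, were expressed in E. coli or baculovirus High Five cells and affinity-purified. Transfer of 33PO4 from ATP onto plate-bound poly(Glu,Tyr) 4:1 or poly(Arg,Ser) 3:1 was counted by liquid scintillation after a 0.5% phosphoric acid wash. IC50 = concentration halving incorporation.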

[4] = biological target: T4, EGFR (Homo sapiens, UniProt P00533); assay: Kinase inhibition assay (33P transfer), EGFR; details: Table 2, kinase inhibition class; read-out: EGFR-1
T4 construct: Kinases are expressed as either kinase domains or full length constructs; made in house
T4 sequence (P00533 25-1210, species assumed): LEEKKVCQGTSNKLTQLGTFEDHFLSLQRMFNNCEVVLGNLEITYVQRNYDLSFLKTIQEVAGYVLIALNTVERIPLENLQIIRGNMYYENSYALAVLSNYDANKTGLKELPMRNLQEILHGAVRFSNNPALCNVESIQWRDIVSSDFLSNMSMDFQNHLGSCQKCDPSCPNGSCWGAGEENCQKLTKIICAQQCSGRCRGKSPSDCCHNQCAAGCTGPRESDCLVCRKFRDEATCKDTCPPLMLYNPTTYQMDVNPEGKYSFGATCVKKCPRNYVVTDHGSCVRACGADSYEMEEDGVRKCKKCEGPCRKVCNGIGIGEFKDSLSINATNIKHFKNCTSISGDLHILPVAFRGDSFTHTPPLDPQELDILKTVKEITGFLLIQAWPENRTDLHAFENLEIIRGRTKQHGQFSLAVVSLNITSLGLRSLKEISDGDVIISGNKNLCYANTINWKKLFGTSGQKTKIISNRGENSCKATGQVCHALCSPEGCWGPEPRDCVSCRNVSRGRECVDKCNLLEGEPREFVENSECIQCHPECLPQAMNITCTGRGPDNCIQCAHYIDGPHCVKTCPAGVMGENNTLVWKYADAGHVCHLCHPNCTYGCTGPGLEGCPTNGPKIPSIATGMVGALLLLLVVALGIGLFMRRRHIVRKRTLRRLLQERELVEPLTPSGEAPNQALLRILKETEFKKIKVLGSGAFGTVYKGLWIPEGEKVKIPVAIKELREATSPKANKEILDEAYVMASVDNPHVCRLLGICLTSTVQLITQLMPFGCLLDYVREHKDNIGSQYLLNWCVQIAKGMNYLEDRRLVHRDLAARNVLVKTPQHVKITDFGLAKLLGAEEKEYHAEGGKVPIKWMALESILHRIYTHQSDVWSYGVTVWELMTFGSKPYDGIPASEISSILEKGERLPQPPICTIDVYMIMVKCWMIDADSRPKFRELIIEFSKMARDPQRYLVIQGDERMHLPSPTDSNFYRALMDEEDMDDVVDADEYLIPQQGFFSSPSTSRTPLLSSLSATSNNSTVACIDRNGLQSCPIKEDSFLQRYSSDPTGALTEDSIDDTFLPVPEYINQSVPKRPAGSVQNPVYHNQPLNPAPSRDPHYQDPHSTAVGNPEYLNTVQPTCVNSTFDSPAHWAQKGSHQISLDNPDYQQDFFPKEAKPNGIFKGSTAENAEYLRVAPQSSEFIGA
How it was run: as §2

[5] = biological target: T5, Kdr (Homo sapiens, UniProt P35968); assay: Kinase inhibition assay (33P transfer), Kdr; details: read-out: KDR-1
T5 construct: Kinases are expressed as either kinase domains or full length constructs; made in house
T5 sequence (P35968 20-1356, species assumed): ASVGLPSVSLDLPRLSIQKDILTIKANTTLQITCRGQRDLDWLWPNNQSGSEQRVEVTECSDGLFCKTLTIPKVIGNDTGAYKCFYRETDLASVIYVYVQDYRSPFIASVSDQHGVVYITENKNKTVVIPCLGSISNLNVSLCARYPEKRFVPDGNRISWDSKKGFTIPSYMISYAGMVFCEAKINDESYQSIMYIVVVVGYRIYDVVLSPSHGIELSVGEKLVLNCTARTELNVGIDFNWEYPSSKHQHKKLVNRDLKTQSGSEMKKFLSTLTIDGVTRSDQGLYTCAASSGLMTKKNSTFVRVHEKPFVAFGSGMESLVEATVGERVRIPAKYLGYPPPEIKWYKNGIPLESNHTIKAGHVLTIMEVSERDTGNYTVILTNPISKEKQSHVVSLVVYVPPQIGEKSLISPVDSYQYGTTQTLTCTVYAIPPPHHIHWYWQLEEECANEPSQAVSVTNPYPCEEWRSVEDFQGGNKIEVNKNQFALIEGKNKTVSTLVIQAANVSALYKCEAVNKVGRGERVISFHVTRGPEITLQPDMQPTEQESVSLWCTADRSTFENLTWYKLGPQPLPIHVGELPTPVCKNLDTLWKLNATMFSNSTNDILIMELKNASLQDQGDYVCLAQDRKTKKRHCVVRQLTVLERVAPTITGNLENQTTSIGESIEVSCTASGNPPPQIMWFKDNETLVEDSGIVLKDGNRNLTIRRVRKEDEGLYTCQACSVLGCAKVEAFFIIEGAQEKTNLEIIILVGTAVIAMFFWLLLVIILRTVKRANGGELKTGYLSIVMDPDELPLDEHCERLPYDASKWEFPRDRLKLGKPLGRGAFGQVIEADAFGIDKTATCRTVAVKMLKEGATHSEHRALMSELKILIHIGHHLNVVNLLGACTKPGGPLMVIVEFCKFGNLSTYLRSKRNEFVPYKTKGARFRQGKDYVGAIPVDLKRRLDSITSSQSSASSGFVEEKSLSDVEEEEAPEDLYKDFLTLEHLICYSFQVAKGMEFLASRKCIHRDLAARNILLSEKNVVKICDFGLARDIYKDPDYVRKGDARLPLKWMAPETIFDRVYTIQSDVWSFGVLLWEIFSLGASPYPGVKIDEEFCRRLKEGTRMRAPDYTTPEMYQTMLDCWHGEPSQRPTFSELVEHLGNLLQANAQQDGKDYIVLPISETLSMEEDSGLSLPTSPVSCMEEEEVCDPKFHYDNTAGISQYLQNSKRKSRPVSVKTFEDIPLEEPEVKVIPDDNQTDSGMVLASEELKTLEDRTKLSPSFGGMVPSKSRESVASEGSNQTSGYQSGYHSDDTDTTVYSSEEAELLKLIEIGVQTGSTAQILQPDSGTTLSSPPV
How it was run: as §1

[6] = biological target: T6, c-Met (Homo sapiens, UniProt P08581); assay: Kinase inhibition assay (33P transfer), c-Met; details: Table 2, kinase inhibition class; read-out: Met-1
T6 construct: Kinases are expressed as either kinase domains or full length constructs; made in house
How it was run: as §2

[7] = biological target: T7, AKT (Homo sapiens, UniProt Q9Y243); assay: Kinase inhibition assay (33P transfer), AKT; details: Table 2, kinase inhibition class; read-out: AKT3-1
T7 construct: Kinases are expressed as either kinase domains or full length constructs; made in house
T7 sequence (Q9Y243 whole entry, the tested form may be a part): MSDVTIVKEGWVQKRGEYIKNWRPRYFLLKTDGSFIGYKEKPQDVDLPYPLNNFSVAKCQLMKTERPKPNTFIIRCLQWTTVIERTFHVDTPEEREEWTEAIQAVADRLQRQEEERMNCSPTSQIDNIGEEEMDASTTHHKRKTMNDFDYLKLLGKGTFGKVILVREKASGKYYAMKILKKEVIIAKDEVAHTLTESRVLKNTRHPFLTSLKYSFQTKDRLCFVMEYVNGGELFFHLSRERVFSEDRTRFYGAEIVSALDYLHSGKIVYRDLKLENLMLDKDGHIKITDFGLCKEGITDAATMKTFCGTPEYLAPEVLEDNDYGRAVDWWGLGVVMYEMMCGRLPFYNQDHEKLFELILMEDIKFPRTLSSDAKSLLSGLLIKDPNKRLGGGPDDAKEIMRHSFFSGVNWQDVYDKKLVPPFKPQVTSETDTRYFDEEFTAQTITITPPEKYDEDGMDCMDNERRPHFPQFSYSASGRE
How it was run: as §1

[8] = biological target: T8, IGFR-1 (Homo sapiens, UniProt P08069); assay: Kinase inhibition assay (33P transfer), IGFR-1; details: Table 2, kinase inhibition class
T8 construct: Kinases are expressed as either kinase domains or full length constructs; made in house
T8 sequence (P08069 31-1367): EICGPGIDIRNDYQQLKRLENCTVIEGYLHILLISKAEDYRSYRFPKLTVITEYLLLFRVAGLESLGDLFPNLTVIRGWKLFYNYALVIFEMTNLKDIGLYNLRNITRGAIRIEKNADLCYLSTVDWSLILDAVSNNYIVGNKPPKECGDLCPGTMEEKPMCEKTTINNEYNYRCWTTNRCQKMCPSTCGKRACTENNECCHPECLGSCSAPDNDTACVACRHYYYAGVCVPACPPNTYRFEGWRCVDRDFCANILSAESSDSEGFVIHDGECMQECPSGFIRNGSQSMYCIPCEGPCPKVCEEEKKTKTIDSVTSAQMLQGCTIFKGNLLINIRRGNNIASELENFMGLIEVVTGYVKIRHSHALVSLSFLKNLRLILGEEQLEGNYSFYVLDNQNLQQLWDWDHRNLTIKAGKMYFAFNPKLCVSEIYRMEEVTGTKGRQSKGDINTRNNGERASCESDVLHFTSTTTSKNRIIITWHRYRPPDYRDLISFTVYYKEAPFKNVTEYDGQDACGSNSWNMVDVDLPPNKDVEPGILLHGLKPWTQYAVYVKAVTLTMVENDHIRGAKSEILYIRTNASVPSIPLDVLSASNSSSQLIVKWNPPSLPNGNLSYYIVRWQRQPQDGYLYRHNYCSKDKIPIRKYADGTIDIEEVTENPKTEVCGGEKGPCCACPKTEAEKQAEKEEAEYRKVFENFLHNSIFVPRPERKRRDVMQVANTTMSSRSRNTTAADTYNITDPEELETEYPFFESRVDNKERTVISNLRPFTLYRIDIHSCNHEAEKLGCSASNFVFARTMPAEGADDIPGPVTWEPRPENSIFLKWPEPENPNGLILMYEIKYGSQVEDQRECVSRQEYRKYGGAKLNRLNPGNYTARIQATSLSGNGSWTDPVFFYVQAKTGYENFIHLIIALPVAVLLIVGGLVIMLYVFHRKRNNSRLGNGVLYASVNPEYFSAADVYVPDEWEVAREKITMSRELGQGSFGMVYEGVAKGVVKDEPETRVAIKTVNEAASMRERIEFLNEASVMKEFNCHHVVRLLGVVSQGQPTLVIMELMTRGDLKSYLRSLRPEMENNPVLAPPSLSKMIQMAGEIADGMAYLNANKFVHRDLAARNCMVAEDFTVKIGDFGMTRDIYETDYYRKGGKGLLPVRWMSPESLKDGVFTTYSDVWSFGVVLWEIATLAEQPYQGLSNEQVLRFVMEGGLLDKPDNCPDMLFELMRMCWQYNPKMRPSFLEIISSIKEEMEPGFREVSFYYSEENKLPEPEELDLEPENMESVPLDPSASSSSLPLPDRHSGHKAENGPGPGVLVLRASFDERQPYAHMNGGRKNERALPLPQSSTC

[9] = biological target: T9, ErbB2 (Homo sapiens, UniProt P04626); assay: Kinase inhibition assay (33P transfer), ErbB2; details: read-out: ErbB2-2
T9 construct: Kinases are expressed as either kinase domains or full length constructs; made in house
How it was run: as §2

[10] = biological target: T8, IGFR-1; assay: Kinase inhibition assay, IGFR-1 (Table 2); details: Table 2, kinase inhibition class
[11] = biological target: T10, PDGFRB (Homo sapiens, UniProt P09619); assay: Kinase inhibition assay (33P transfer), PDGFRB; details: read-out: PDGFRB-1
T10 construct: Kinases are expressed as either kinase domains or full length constructs; made in house

T1 sequence (P06239 whole entry, species assumed, the tested form may be a part): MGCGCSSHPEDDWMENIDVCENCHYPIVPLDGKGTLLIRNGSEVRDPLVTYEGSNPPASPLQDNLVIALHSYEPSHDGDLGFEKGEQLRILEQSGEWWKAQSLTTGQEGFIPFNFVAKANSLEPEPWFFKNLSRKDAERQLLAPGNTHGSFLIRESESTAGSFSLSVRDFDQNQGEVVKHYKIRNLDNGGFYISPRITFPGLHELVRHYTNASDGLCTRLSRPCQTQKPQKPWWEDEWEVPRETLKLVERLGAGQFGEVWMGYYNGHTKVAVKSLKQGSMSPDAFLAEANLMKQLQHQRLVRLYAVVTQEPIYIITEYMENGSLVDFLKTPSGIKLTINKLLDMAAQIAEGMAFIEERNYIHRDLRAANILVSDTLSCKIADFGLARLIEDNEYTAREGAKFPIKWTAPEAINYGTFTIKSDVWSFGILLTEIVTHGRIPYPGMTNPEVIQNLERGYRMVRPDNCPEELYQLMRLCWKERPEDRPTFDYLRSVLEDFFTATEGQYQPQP

| Compound | IC50 ([1]; Table 3) [µM] | IC50 ([2]; Table 3) [µM] | IC50 ([3]; Table 3) [µM] | IC50 [4] [µM] | IC50 ([5]; Table 3) [µM] | IC50 [6] [µM] | IC50 [7] [µM] | IC50 [8] [µM] | IC50 [1] [µM] | IC50 [2] [µM] | IC50 [3] [µM] | IC50 [9] [µM] | IC50 [5] [µM] | IC50 [10] [µM] | IC50 [11] [µM] |
| --- | --- | --- | --- | --- | --- | --- | --- | --- | --- | --- | --- | --- | --- | --- | --- |
| COC(=O)c1ccc(Nc2ncnc(-c3ccccc3)n2)cc1 [Compound 163] | > 14.7 | > 14.7 | > 14.7 | > 14.7 | > 14.7 | > 14.7 | > 14.7 | > 14.7 | – | – | – | – | – | – | – |
| N#Cc1ccc(Nc2ncnc(-c3cccs3)n2)cc1 [Compound 356] | > 16.1 | > 16.1 | > 16.1 | > 16.1 | > 16.1 | > 16.1 | > 16.1 | > 16.1 | – | – | – | – | – | – | – |
| COc1cc(Nc2ncnc(NCCc3ccccc3)n2)cc(OC)c1OC [Compound 628] | – | – | – | 1.05 to 6.29 | – | > 11.8 | > 11.8 | – | 1.05 to 6.29 | > 11.8 | > 11.8 | > 11.8 | 6.29 to 9.18 | 1.05 to 6.29 | 1.05 to 6.29 |
| COc1cc(Nc2ncnc(Nc3ccc4nn(C)cc4c3)n2)cc(OC)c1OC [Compound 556] | – | – | – | 0.982 to 5.89 | – | > 11 | > 11 | – | < 0.982 | > 11 | 0.982 to 5.89 | < 0.982 | 0.982 to 5.89 | < 0.982 | < 0.982 |
| COc1ccc(Nc2ncnc(NCC(O)c3ccccc3)n2)cc1OC (stereo not shown) [Compound 780] | – | – | – | 9.53 to 12.2 | – | > 12.2 | > 12.2 | – | 6.53 to 9.53 | > 12.2 | > 12.2 | > 12.2 | > 12.2 | > 12.2 | 9.53 to 12.2 |
| CN(c1cccc(Cl)c1)c1ncnc(Nc2cc(C(C)(C)C)on2)n1 [Compound 754] | – | – | – | > 12.5 | – | > 12.5 | > 12.5 | – | > 12.5 | > 12.5 | > 12.5 | > 12.5 | > 12.5 | > 12.5 | > 12.5 |
| COc1ccc(Nc2ncnc(NC[C@@H]3CCCO3)n2)cc1OC [Compound 790] | – | – | – | > 13.6 | – | > 13.6 | > 13.6 | – | > 13.6 | > 13.6 | > 13.6 | 1.21 to 7.24 | > 13.6 | > 13.6 | 10.6 to 13.6 |
| CN(c1cccc(Cl)c1)c1ncnc(Nc2ccc(F)c(Cl)c2)n1 [Compound 703] | – | – | – | < 1.1 | – | > 12.4 | > 12.4 | – | > 12.4 | > 12.4 | > 12.4 | 9.61 to 12.4 | > 12.4 | > 12.4 | > 12.4 |
| COc1ccc(-c2cc(Nc3ncnc(Nc4ccc(CC(N)=O)cc4)n3)[nH]n2)cc1 [Compound 576] | – | – | – | 0.961 to 5.76 | – | < 0.961 | > 10.8 | – | < 0.961 | > 10.8 | 0.961 to 5.76 | > 10.8 | < 0.961 | < 0.961 | > 10.8 |
| COC(=O)Cc1cccc(Nc2ncnc(-n3c(NCc4ccccn4)nc4ccccc43)n2)c1 [Compound 547] | – | – | – | > 9.65 | – | > 9.65 | > 9.65 | – | > 9.65 | > 9.65 | > 9.65 | > 9.65 | < 0.857 | > 9.65 | > 9.65 |
| NC(=O)Cc1cccc(Nc2ncnc(Nc3cc(-c4ccccc4)n[nH]3)n2)c1 [Compound 578] | – | – | – | < 1.04 | – | < 1.04 | > 11.6 | – | < 1.04 | > 11.6 | < 1.04 | 1.04 to 6.21 | < 1.04 | < 1.04 | 1.04 to 6.21 |
| COc1ccc(Nc2ncnc(N3CCCc4ccc(C)cc43)n2)cc1OC [Compound 567] | – | – | – | < 1.06 | – | 1.06 to 6.36 | > 11.9 | – | 1.06 to 6.36 | > 11.9 | > 11.9 | 6.36 to 9.27 | < 1.06 | > 11.9 | 1.06 to 6.36 |
| Cc1ccc2c(c1)CCCN2c1ncnc(Nc2ccc3c(c2)C(=O)OC3)n1 [Compound 763] | – | – | – | < 1.07 | – | 1.07 to 6.43 | > 12.1 | – | 6.43 to 9.37 | > 12.1 | > 12.1 | 1.07 to 6.43 | 1.07 to 6.43 | > 12.1 | 6.43 to 9.37 |
| CC(=O)NS(=O)(=O)c1ccc(Nc2ncnc(N(C)c3cccc(Cl)c3)n2)cc1 [Compound 751] | – | – | – | < 0.924 | – | > 10.4 | > 10.4 | – | 5.54 to 8.09 | > 10.4 | > 10.4 | > 10.4 | 0.924 to 5.54 | > 10.4 | 0.924 to 5.54 |
| COc1cc(CNc2ncnc(N(C)c3cccc(Cl)c3)n2)cc(OC)c1OC [Compound 747] | – | – | – | 5.77 to 8.42 | – | > 10.8 | > 10.8 | – | > 10.8 | > 10.8 | > 10.8 | > 10.8 | > 10.8 | > 10.8 | > 10.8 |
| NC(=O)Cc1cccc(Nc2ncnc(-n3c(N)nc4ccccc43)n2)c1 [Compound 955] | – | – | – | > 12.5 | – | 1.11 to 6.66 | > 12.5 | – | 1.11 to 6.66 | > 12.5 | 1.11 to 6.66 | 1.11 to 6.66 | < 1.11 | < 1.11 | 1.11 to 6.66 |
| c1ccc(Cn2ncc3cc(Nc4ncnc(Nc5ccc(N6CCOCC6)cc5)n4)ccc32)cc1 [Compound 729] | – | – | – | < 0.836 | – | 0.836 to 5.02 | 7.31 to 9.4 | – | 0.836 to 5.02 | 5.02 to 7.31 | 5.02 to 7.31 | 0.836 to 5.02 | 0.836 to 5.02 | 0.836 to 5.02 | 0.836 to 5.02 |
| COc1ccc(Cl)cc1Nc1ncnc(Nc2cc(OC)c(OC)c(OC)c2)n1 [Compound 627] | – | – | – | 0.957 to 5.74 | – | 8.38 to 10.8 | > 10.8 | – | < 0.957 | > 10.8 | 0.957 to 5.74 | 0.957 to 5.74 | 0.957 to 5.74 | < 0.957 | < 0.957 |
| COc1cc(Nc2ncnc(-n3c(NC4CCc5ccccc54)nc4ccccc43)n2)cc(OC)c1OC (stereo not shown) [Compound 1044] | – | – | – | 4.71 to 6.87 | – | > 8.83 | > 8.83 | – | 4.71 to 6.87 | > 8.83 | > 8.83 | 0.785 to 4.71 | 0.785 to 4.71 | > 8.83 | 6.87 to 8.83 |
| NC(=O)Cc1ccc(Nc2ncnc(Nc3cc(-c4ccccc4)n[nH]3)n2)cc1 [Compound 573] | – | – | – | 1.04 to 6.21 | – | 1.04 to 6.21 | 6.21 to 9.06 | – | < 1.04 | 6.21 to 9.06 | 1.04 to 6.21 | 6.21 to 9.06 | < 1.04 | < 1.04 | 1.04 to 6.21 |
